Results taken from ChEMBL document CHEMBL1201862, “PubChem BioAssay data set” (2004).
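Step 1: Grow cells in 96-well plates. Step 2: Expose to compound for 48 hours at 5 concentrations. Step 3: Interpolate endpoints linearly; if unreached, use highest concentration. GI50: concentration for 50% inhibition of growth.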 Calls of active or inactive are those of the source. No stated cut-off is given here; in the data, active = GI50 up to about 1.1 µM and inactive = higher.

Key:
Experiment in all cases: DTP human tumour cell line panel, 48 h
786-0 = test system: 786-0
DMS-273 = test system: DMS-273
EKVX = test system: EKVX
HCC 2998 = test system: HCC 2998
HL-60 = test system: HL-60
HOP-92 = test system: HOP-92
HT-29 = test system: HT-29
IGROV-1 = test system: IGROV-1
K562 = test system: K562
M14 = test system: M14
MOLT-4 = test system: MOLT-4
NCI-H460 = test system: NCI-H460
NCI-H522 = test system: NCI-H522
RPMI-8226 = test system: RPMI-8226
RXF 393 = test system: RXF 393
SK-MEL-2 = test system: SK-MEL-2
UO-31 = test system: UO-31
DU-145 = test system: DU-145
NCI/ADR-RES = test system: NCI/ADR-RES
T47D = test system: T47D

| Structure (SMILES) | GI50 (786-0) | GI50 (DMS-273) | GI50 (EKVX) | GI50 (HCC 2998) | GI50 (HL-60) | GI50 (HOP-92) | GI50 (HT-29) | GI50 (IGROV-1) | GI50 (K562) | GI50 (M14) | GI50 (MOLT-4) | GI50 (NCI-H460) | GI50 (NCI-H522) | GI50 (RPMI-8226) | GI50 (RXF 393) | GI50 (SK-MEL-2) | GI50 (UO-31) | GI50 (DU-145) | GI50 (NCI/ADR-RES) | GI50 (T47D) |
| --- | --- | --- | --- | --- | --- | --- | --- | --- | --- | --- | --- | --- | --- | --- | --- | --- | --- | --- | --- | --- |
| C1=NN(Cc2ccccc2)C(N(Cc2ccccc2)Cc2ccccc2)N1 (stereo not drawn) | 17.8 µM (inactive) | 15.1 µM (inactive) | 20.3 µM (inactive) | 17.5 µM (inactive) | 4.91 µM (inactive) | 12.8 µM (inactive) | 15.2 µM (inactive) | 14.5 µM (inactive) | 8.91 µM (inactive) | 11 µM (inactive) | 15.2 µM (inactive) | 18.1 µM (inactive) | 15.7 µM (inactive) | 3.9 µM (inactive) | 16.2 µM (inactive) | 16.4 µM (inactive) | 14.2 µM (inactive) | – | – | – |
| CCC1(O)C(=O)OCc2c1cc1n(c2=O)Cc2cc3c(N)cccc3nc2-1 (stereo not drawn) [RS-9-Aminocamptothecin] | 0.0108 µM (active) | < 0.01 µM (active) | 1.2 µM (inactive) | 0.177 µM (active) | < 0.0128 µM (active) | 0.0349 µM (active) | 0.118 µM (active) | 0.327 µM (active) | 0.0309 µM (active) | 0.0174 µM (active) | < 0.01 µM (active) | < 0.0106 µM (active) | 0.0196 µM (active) | 0.0416 µM (active) | 0.0447 µM (active) | 0.288 µM (active) | < 0.0109 µM (active) | < 0.011 µM (active) | 0.0118 µM (active) | – |
| NCCSCC(N)C(=O)O (stereo not drawn) | 83.4 µM (inactive) | > 497 µM (inactive) | > 497 µM (inactive) | > 497 µM (inactive) | > 497 µM (inactive) | > 497 µM (inactive) | 39.5 µM (inactive) | > 87.5 µM (inactive) | 37.2 µM (inactive) | > 497 µM (inactive) | > 497 µM (inactive) | 60.1 µM (inactive) | > 63 µM (inactive) | 47.1 µM (inactive) | > 497 µM (inactive) | > 497 µM (inactive) | 85.5 µM (inactive) | > 90.6 µM (inactive) | > 100 µM (inactive) | > 83 µM (inactive) |
| C=C[C@@H](C)[C@]1(C(=O)OC)CCCC12OCCO2 | 63.8 µM (inactive) | 39.3 µM (inactive) | > 100 µM (inactive) | > 100 µM (inactive) | > 100 µM (inactive) | > 100 µM (inactive) | > 100 µM (inactive) | > 100 µM (inactive) | > 100 µM (inactive) | > 100 µM (inactive) | > 100 µM (inactive) | > 100 µM (inactive) | 82.2 µM (inactive) | 72.9 µM (inactive) | > 100 µM (inactive) | > 100 µM (inactive) | > 100 µM (inactive) | – | – | – |
